Assay results as given in a melting point compilation (Tetko et al.; mined from patent text by program, amines drawn as free bases though some values may be those of a salt).

SMILES | melting point [°C]
CCSCc1ccc(C(=O)c2ccc(Cl)cc2)cc1 | 33 to 34
COc1c(Cc2ccccc2)ccc2ccccc12 | 56 to 59
O=C(Nc1cc(C(F)(F)F)ccc1N1CCc2ccccc21)c1ccccc1F | 127 to 130
CCOC(=O)c1cn(CC)c2nc(N3CCC(NC(C)=O)C3)c(F)cc2c1=O (stereo not given) | 266 to 269
NS(=O)(=O)Oc1cc(C(F)(F)F)cc(C(F)(F)F)c1 | 118 to 120
O=c1[nH]cnc2sc(Br)cc12 | 304
CN(C)n1c(=O)c2ccccc2n(C)c1=O | 154
O=c1cc(NCCN2CCN(c3ccc(F)cc3)CC2)cn[nH]1 | 96 to 98
CC(=O)OCC1CCCN(C(=O)c2ccc(NC(=O)c3ccccc3C)cc2)c2ccccc21 (stereo not given) | 155 to 156
COc1ccc(-c2nc3cc4nc[nH]c(=O)c4cc3[nH]2)cc1 | > 300
CCOC(=O)c1cnc(-c2ccccc2)nc1Nc1ccccc1 | 98 to 100
COC(=O)CC(O)CCSc1cc(C(C)(C)C)c(O)c(C(C)(C)C)c1 (stereo not given) | 77 to 80
CC(C)(C)c1cc(C2CC(=O)N(CCCCCCN3C(=O)CC(c4cc(C(C)(C)C)c(O)c(C(C)(C)C)c4)C3=O)C2=O)cc(C(C)(C)C)c1O (stereo not given) | 190 to 193
CC(C)(C)OC(=O)NCCC(=O)NCC(C(=O)OCc1ccccc1)c1ccccc1 (stereo not given) | 84.5 to 86
CN1Cc2c(C(N)=O)ncn2-c2ccccc2C1=O | 274 to 275
CCn1c(=O)c2[nH]c(/C=C/c3cccc(C(F)(F)F)c3)nc2n(CC)c1=O | > 270
COc1ccc(-c2c(-c3ccccc3)nc3n2Cc2ccccc2C3)cc1 | 183 to 185
CNC(=NC#N)NCCSCc1cc(C)c(CN(C)C)o1 | 86 to 88
O=c1ccoc2ccc(F)cc12 | 165 to 168
COC(=O)c1ccc(Cl)cc1NC(=O)CSc1ccccc1C(=O)O | 207 to 209

SMILES | melting point [°C]
Cc1[nH]cnc1C=CC(=O)c1cn2c3c(cccc13)CCC2 | 108 to 110
c1cc2cc(-c3cnc(O[C@H]4CCN5CCC[C@@H]4C5)nc3)ccc2[nH]1 | 195 to 199
O=C(c1ccc(F)cc1)c1cc2ccsc2s1 | 113
CN(C)c1ccc(NC(=O)N(CC2CCC(CN(C(=O)Nc3ccc(N(C)C)cc3)C3C4CC5CC(C4)CC3C5)CC2)C2C3CC4CC(C3)CC2C4)cc1 (stereo not given) | 182 to 185
CC12CC(c3ccc(C=O)cc3)C3=C4CCC(=O)C=C4CCC3C1CCC2O (stereo not given) | 197 to 200
O=C(O)Cc1ccccc1Oc1cccc(F)c1 | 81 to 84
CNc1nc(N2CCN(Cc3ccccc3)CC2)ncc1CCO | 119 to 120
COc1ccc(/C=C/c2cnccn2)cc1OC1CCCC1 | 81 to 83
Cc1ccc(Sc2c(Cl)c(C(=O)O)c(C(O)=NCCO)c(Cl)c2Sc2ccc(C)cc2)cc1 | 211 to 212
NC(C(=O)O)c1ccc(C(=O)O)cc1F (stereo not given) | 250 to 255
O=CNc1cc(-c2ccc(Cl)cc2)n[nH]1 | 151
O=C(NC(=O)c1c(F)cccc1F)Nc1ccc(-c2ccc(Cl)cc2)c(Cl)n1 | 237 to 241
O=C(c1cc2ccnc(Cl)c2[nH]1)N1CCSCC1 | 62 to 72
CC(C)Cn1c(Nc2cc(C(F)(F)F)ccc2C(F)(F)F)nc(C(F)(F)F)cc1=O | 136 to 138
CC(C)c1nc(CCOC2=CCCCCCCCCCC2)n(C)c1Sc1cc(Cl)cc(Cl)c1 | 96 to 102
CCOC(=O)c1c(-c2ccc(N3CCN(C)CC3)cc2)n(C)n(-c2ccc(C#N)cc2)c1=O | 278 to 280
CCCCOc1c(\C(C)=C/C=C/C(C)=C/C(=O)O)cc(C(C)(C)C)cc1C(C)(C)C | 148 to 151
COc1ccc(N2CCN(c3c(C)c4c(c(C(C)=O)c3C)OC(C)(C)C4)CC2)cc1 | 156 to 159
Nc1c(C=O)cc(-n2cnnc2)cc1C(F)(F)F | 234 to 236
Cc1c(Cc2cnc[nH]2)cccc1NS(C)(=O)=O | 224
